Among the data in patent publication US8318793B2, “Heterocyclic compounds and their use as glycogen synthase kinase-3 inhibitors” (Abbott GmbH & Co. KG, priority 2009, dated 2012) are IC50 values, retold here.

Bounds are passed on as bounds.

The target in the test is T1, human Glycogen Synthase Kinase-3 beta (hGSK-3β) (Homo sapiens, UniProt P49841).
T1 construct: purchased Upstate cell signaling solutions
T1 sequence (P49841 whole entry): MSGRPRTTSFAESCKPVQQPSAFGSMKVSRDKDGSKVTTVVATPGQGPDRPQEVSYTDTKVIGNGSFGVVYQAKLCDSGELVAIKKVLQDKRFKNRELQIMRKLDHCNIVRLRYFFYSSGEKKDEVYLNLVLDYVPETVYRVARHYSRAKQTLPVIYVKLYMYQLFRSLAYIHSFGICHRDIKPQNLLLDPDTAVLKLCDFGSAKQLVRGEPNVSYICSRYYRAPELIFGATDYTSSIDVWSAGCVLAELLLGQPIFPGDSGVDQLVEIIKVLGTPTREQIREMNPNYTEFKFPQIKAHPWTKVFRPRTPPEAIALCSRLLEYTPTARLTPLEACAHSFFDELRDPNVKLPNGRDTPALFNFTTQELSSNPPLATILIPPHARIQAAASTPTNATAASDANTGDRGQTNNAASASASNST
As to the kind of experiment: Biochemical hGSK-3beta assay (33P-ATP phosphorylation of biotinylated peptide substrate). The settings on record: 10 μM ATP, 30 minutes at room temperature; read-out: GSK-3β IC50. On the procedure: Methods—Biochemical hGSK-3beta Assay
Compounds were tested for their ability to inhibit human Glycogen Synthase Kinase-3 beta (hGSK-3β) to phosphorylate biotin-[…](pS)EDEEE. Compounds were incubated with 0.5 μCi 33P-ATP, 10 μM ATP, 0.0125U hGSK-3β (Upstate cell signaling solutions) and 1 μM substrate (biotin-[…](pS)EDEEE) in 50 mM HEPES, 10 mM MgCl2, […], 1 mM DTT, 0.0075% Triton, 2% DMSO (total volume 50 μL) for 30 minutes at room temperature. The incubation was stopped by addition of an equal volume of 100 mM EDTA, 4M NaCl. 80 μL of this mixture was added to streptavidin-coated Flashplates (PerkinElmer). Following a wash step, 33P incorporation was quantified on a MicroBeta microplate liquid scintillation counter (PerkinElmer). IC50's were determined by fitting a sigmoidal dose-response curve to the counts obtained at the different concentrations in GraphPad Prism.
As for `N#Cc1ccc2[nH]c(O)c(-c3ccc(CN4CC[C@H]5CNC[C@H]54)cn3)c2c1` (stereo in doubt) [Example 5, 3-(5-(((3aS,6aS)-Hexahydropyrrolo[3,4-b]pyrrol-1(2H)-yl)methyl)-pyridin-2-yl)-2-hydroxy-1H-indole-5-carbonitrile], the IC50 is less than 100 nM. Take `N#Cc1ccc2[nH]c(O)c(-c3ccc(CN4CC5COCC5C4)cn3)c2c1` (stereo not drawn) [Example 1, 3-(5-((Dihydro-1H-furo[3,4-c]pyrrol-5(3H,6H,6aH)-yl)methyl)pyridin-2-yl)-2-hydroxy-1H-indole-5-carbonitrile]: the IC50 was less than 100 nM. For `Oc1[nH]c2ncccc2c1-c1ccc(CN2CCOCC2)cn1` [Example 2, 3-(5-(Morpholinomethyl)-pyridin-2-yl)-1H-pyrrolo[2,3-b]pyridin-2-ol] the value was 10000 to 100000 nM; for `Oc1[nH]c2cnccc2c1-c1ccc(CN2CCOCC2)cn1` [Example 3, 3-(5-(Morpholinomethyl)-pyridin-2-yl)-1H-pyrrolo[2,3-c]pyridin-2-ol], 100 to 10000 nM; for `Oc1[nH]c2ccc(Br)nc2c1-c1ccc(CN2CCOCC2)cn1` [Example 4, 5-Bromo-3-(5-(morpholinomethyl)-pyridin-2-yl)-1H-pyrrolo[3,2-b]pyridin-2-ol], less than 100 nM. Consider `[O-][n+]1cc(CN2CCOCC2)ccc1-c1c(O)[nH]c2ccc(Br)nc12` [Example 4.1, 2-(5-Bromo-2-hydroxy-1H-pyrrolo[3,2-b]pyridin-3-yl)-5-(morpholinomethyl)-pyridine 1-oxide], for which the half-inhibitory concentration (IC50) fell in the range of 100 to 10000 nM.
